# Columns and labels:
# Assay in all cases: MIC by agar dilution method
# Format in all cases: cell-based
# S. marcescens IFO 12648 = conditions: Serratia marcescens, IFO12648, 24 h, 10^8 CFU/ml, 37° C. overnight
# Experimental: (§1) The minimal inhibitory concentrations [MIC (μg/ml)] of a representative compound of the invention were determined by the following method.
# (§2) Method for MIC determination
# (§3) The MIC values of the test compound were determined by the agar dilution method. Thus, 1.0 ml aliquots of serial aqueous dilutions of the test compound were put in petri dishes and 9.0 ml aliquots of Trypticase Soy Agar were added and mixed. Those agar plates were respectively smeared with a suspension (about 10^8 CFU/ml) of the test organism and incubated at 37° C. overnight.
# P. mirabilis IFO 3849 = conditions: Proteus mirabilis, IFO3849, 24 h, 10^8 CFU/ml, 37° C. overnight
# Experimental: as §1, §2, §3
# C. freundii TN 474 = conditions: Citrobacter freundii, TN474, 24 h, 10^8 CFU/ml, 37° C. overnight
# Experimental: as §1, §2, §3
# E. cloacae IFO 12937 = conditions: Enterobacter cloacae, IFO12937, 24 h, 10^8 CFU/ml, 37° C. overnight
# Experimental: as §1, §2, §3
# S. pneumoniae Type I = conditions: Streptococcus pneumoniae, 24 h, 10^8 CFU/ml, 37° C. overnight
# Experimental: as §1, §2, §3
# C. diphtheriae Tronto = conditions: Corynebacterium diphtheriae, 24 h
# Experimental: as §1, §2, §3
# M. morganii IFO 3168 = conditions: Morganella morganii, IFO3168, 24 h, 10^8 CFU/ml, 37° C. overnight
# Experimental: as §1, §2, §3
# S. pyogenes S-8 = conditions: Streptococcus pyogenes, S8, 24 h, 10^8 CFU/ml, 37° C. overnight
# Experimental: as §1, §2, §3
# E. coli NIHJ T-7 = conditions: Escherichia coli, NIHJT7, 24 h, 10^8 CFU/ml, 37° C. overnight
# Experimental: as §1, §2, §3
# E. cloacae TN 583 = conditions: Enterobacter cloacae, TN583, 24 h, 10^8 CFU/ml, 37° C. overnight
# Experimental: as §1, §2, §3
# P. vulgaris IFO 3988 = conditions: Proteus vulgaris, IFO3988, 24 h, 10^8 CFU/ml, 37° C. overnight
# Experimental: as §1, §2, §3
# C. freundii IFO 12681 = conditions: Citrobacter freundii, IFO12681, 24 h, 10^8 CFU/ml, 37° C. overnight
# Experimental: as §1, §2, §3
# E. coli NIHJ JC-2 = conditions: Escherichia coli, NIHJJC2, 24 h, 10^8 CFU/ml, 37° C. overnight
# Experimental: as §1, §2, §3
# K. oxytoca TN 1711 = conditions: Klebsiella oxytoca, TN1711, 24 h, 10^8 CFU/ml, 37° C. overnight
# Experimental: as §1, §2, §3
# S. aureus 1840 = conditions: Staphylococcus aureus, 24 h, 10^8 CFU/ml, 37° C. overnight
# Experimental: as §1, §2, §3
# E. coli NIHJ O-111 = conditions: Escherichia coli, NIHJO111, 24 h, 10^8 CFU/ml, 37° C. overnight
# Experimental: as §1, §2, §3
# S. aureus 308A-1 = conditions: Staphylococcus aureus, 308A1, 24 h, 10^8 CFU/ml, 37° C. overnight
# Experimental: as §1, §2, §3
# K. pneumoniae DT = conditions: Klebsiella pneumoniae, 24 h, 10^8 CFU/ml, 37° C. overnight
# Experimental: as §1, §2, §3
# S. pyogenes E-14 = conditions: Streptococcus pyogenes, E14, 24 h, 10^8 CFU/ml, 37° C. overnight
# Experimental: as §1, §2, §3
# S. aureus FDA 209P = conditions: Staphylococcus aureus, FDA209P, 24 h, 10^8 CFU/ml, 37° C. overnight
# Experimental: as §1, §2, §3
# S. mitis America = conditions: Streptococcus mitis, 24 h, 10^8 CFU/ml, 37° C. overnight
# Experimental: as §1, §2, §3
smiles,measurement,setting,value
"C[C@@H](O)[C@H]1C(=O)N2C(C(=O)[O-])=C3SCCCC3[C@H]12.[Na+] (mixture of isomers) [Example 3, Sodium (5S,6S,7RS)-5-[(R)-1-hydroxyethyl]-4-oxo-3-aza-11-thiatricyclo[5.4.0.0^3,6]undec-1-ene-2-carboxylate]",MIC,S. marcescens IFO 12648,1.56 µg/mL
same,MIC,P. mirabilis IFO 3849,1.56 µg/mL
same,MIC,C. freundii TN 474,1.56 µg/mL
same,MIC,E. cloacae IFO 12937,0.78 µg/mL
same,MIC,S. pneumoniae Type I,0.39 µg/mL
same,MIC,C. diphtheriae Tronto,< 0.1 µg/mL
same,MIC,M. morganii IFO 3168,3.13 µg/mL
same,MIC,S. pyogenes S-8,0.2 µg/mL
same,MIC,E. coli NIHJ T-7,0.2 µg/mL
same,MIC,E. cloacae TN 583,0.78 µg/mL
same,MIC,P. vulgaris IFO 3988,3.13 µg/mL
same,MIC,C. freundii IFO 12681,0.39 µg/mL
same,MIC,E. coli NIHJ JC-2,0.2 µg/mL
same,MIC,K. oxytoca TN 1711,0.39 µg/mL
same,MIC,S. aureus 1840,1.56 µg/mL
same,MIC,E. coli NIHJ O-111,0.2 µg/mL
same,MIC,S. aureus 308A-1,0.78 µg/mL
same,MIC,K. pneumoniae DT,0.39 µg/mL
same,MIC,S. pyogenes E-14,0.78 µg/mL
same,MIC,S. aureus FDA 209P,0.78 µg/mL
same,MIC,S. mitis America,0.78 µg/mL
